Legend:
[1] = target: T1, human serotonin transporter (Homo sapiens, UniProt P31645); assay: Serotonin transporter reuptake inhibition assay ([3H]Serotonin uptake); format: cell-based; settings: recombinant HEK-293 cells with human serotonin transporter
T1 construct: expressed in transfected cells; host or cells: HEK-293
Experimental: Serotonin Transporter Reuptake Inhibition Assay
The recombinant HEK-293 cells with human serotonin transporter were plated. Test compounds described in table 1 were pre-incubated with cells (2×10^5/ml) in modified Tris-HEPES buffer pH 7.1 for 20 minutes at 25° C. and then they were incubated for additional 10 minutes after 65 nM of [^3H]Serotonin was added. Bound cells were filtered and counted to determine [^3H]Serotonin uptake. Reduction of [^3H]Serotonin uptake by 50 percent or more (≧50%) relative to 10 μM fluoxetine indicates significant inhibitory activity.

[2] = target: T2, human recombinant norepinephrine transporter (Homo sapiens, UniProt P23975); assay: Norepinephrine transporter reuptake inhibition assay ([3H]Norepinephrine uptake); format: cell-based
T2 construct: expressed in transfected cells; host or cells: MDCK
T2 sequence (P23975 whole entry): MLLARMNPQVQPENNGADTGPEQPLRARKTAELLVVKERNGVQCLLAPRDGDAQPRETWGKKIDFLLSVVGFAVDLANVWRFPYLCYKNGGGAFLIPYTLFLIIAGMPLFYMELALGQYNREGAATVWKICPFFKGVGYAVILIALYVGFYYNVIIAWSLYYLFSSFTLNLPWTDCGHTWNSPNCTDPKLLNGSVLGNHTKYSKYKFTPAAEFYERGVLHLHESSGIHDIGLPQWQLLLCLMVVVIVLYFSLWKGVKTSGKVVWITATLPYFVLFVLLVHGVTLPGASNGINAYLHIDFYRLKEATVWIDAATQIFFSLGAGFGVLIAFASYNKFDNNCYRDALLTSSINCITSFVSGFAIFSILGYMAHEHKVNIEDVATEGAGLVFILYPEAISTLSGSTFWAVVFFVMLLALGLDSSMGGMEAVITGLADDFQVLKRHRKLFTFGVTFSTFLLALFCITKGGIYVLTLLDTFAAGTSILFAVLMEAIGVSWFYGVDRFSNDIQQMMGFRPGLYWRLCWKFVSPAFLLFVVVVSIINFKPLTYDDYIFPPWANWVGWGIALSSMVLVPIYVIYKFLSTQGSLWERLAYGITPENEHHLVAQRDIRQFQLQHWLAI
Experimental: Norepinephrine Transporter Reuptake Inhibition Assay
MDCK cells with stably expressed human recombinant norepinephrine transporter were plated one day. Test compounds were pre-incubated with cells (2×10^5/ml) in modified Tris-HEPES buffer pH 7.1 for 20 minutes at 25° C. and then they were incubated for additional 10 minutes after 25 nM of [^3H]Norepinephrine was added. A lysate was obtained from solubilized cells and the filtered lysate was counted to determine [^3H]Norepinephrine uptake. Reduction of [^3H]Norepinephrine uptake by 50 percent or more (≧50%) relative to 10 μM desipramine indicates significant inhibitory activity.

[3] = target: T3, human recombinant dopamine transporter (Homo sapiens, UniProt Q01959); assay: Dopamine transporter reuptake inhibition assay ([3H]Dopamine uptake); format: cell-based; settings: CHO-K1 cells with human recombinant dopamine transporter
T3 construct: expressed in transfected cells; host or cells: CHO-K1
T3 sequence (Q01959 whole entry): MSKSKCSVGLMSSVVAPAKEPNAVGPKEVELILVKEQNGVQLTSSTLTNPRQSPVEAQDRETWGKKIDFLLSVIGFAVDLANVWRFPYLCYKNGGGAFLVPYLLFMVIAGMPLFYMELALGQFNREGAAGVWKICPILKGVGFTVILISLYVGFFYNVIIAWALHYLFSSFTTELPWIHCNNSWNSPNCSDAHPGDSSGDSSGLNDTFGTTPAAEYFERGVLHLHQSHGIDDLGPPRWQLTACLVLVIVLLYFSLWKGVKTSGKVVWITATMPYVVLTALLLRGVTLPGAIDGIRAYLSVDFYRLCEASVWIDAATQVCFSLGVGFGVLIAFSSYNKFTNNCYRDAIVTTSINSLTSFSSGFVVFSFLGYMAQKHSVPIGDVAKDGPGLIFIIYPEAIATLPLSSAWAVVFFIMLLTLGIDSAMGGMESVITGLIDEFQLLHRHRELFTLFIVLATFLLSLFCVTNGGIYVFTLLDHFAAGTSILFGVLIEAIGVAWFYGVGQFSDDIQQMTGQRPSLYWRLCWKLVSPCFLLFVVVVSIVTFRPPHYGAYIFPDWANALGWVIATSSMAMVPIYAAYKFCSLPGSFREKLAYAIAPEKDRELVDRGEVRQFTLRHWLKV
Experimental: Dopamine Transporter Reuptake Inhibition Assay
CHO-K1 cells with human recombinant dopamine transporter were plated. Test compounds were pre-incubated with cells (4×10^5/ml) in modified Tris-HEPES buffer pH 7.1 for 20 minutes at 25° C. and then they were incubated for additional 10 minutes after 50 nM of [^3H]Dopamine was added. A lysate is obtained from solubilized cells and counted to determine [^3H]Dopamine uptake. Reduction of [^3H]Dopamine uptake by 50 percent or more (≧50%) relative to 10 μM nomifensine indicates significant inhibitory activity.

mice [4] = assay: Forced swimming test in mice (FST); format: in vivo; settings: Mus musculus, 0.5 h, 30ip, reduction in duration of immobility vs control group, 30 min after administration
Experimental: Forced swimming Test in Mice (FST)
The Forced swimming test is an animal model based on the rodent's behavioral repertoire for screening drugs with potential antidepressant activity. As in several other models used for this goal, an uncontrollable stress stimulus produces behavioral changes that are sensitive to antidepressant treatment.
The mice were intraperitoneally treated with the test compound with an injection volume of […]. The group treated with 30% PEG400 served as a control group. Thirty minutes following administration, mice were individually forced to swim in a transparent glass vessel (14 cm high, 11.5 cm in diameter) filled with 10 cm of water at 25° C. The total duration of immobility (second) was measured during the last 4 minutes of a single 6-min test session. Mice were considered immobile when they made no further attempts to escape other than the movements necessary to keep their heads above the water. The potent ability of the compounds was determined as percent value of reduction in the duration of immobility comparing to the control group.

mice [5] = assay: Marble burying test; format: in vivo; settings: 30ip, reduction in number of marbles buried vs control group, 30 min after treatment
Excerpt: The Marble burying test is a screening tool for putative anxiolytics. In this test, control mice naturally bury glass marbles in the cage bedding and the administration of anxiolytic compounds, including Diazepam, reduces the number of buried marbles. Positive compounds in the marble burying test including selective serotonin reuptake inhibitor may be especially beneficial to obsessive-compulsive disorder.
A group of mice was intraperitoneally treated with test compound dissolved in 30% PEG400 with an injection volume of 10 ml/kg. The group treated with only 30% PEG400 served as a control group. Thirty minutes after the treatment, the animals were individually placed in a polycarbonate cage which was same as used for animal housing with an open top located within a quiet room. Each cage consisted of ⅛ inch corn bedding 5 cm deep. Twenty four clean glass marbles (15 mm diameter) were evenly spaced in four rows of six on top of the bedding. Each mouse was left in the cage for 30 minutes and the number of marbles buried (buried more than ½ or ⅔) was counted. The potent ability of the compounds was determined as percent value of reduction in the number of marbles buried comparing to the control group.

mice [6] = assay: Acetic acid induced writhing test (AA writhing test); format: in vivo; settings: Mus musculus, 0.5 h, 30sc, reduction in number of writhing vs control group, 0.8% acetic acid ip 30 min after compound
Excerpt: Acetic Acid Induced Writhing Test (AA Writhing Test)
The Acetic acid-induced writhing test is a well-established nociceptive test using a chemical stimulus. Although several animal models of nociceptive tests have been developed to examine and compare the anti-nociceptive effects of different drugs, the anti-nociceptive effects of antidepressants appear to be test-dependent. Indeed, the acetic acid-induced writhing test is more sensitive to antidepressants than other tests using thermal, mechanical or electrical stimuli.
The animals were subcutaneously treated with the test compound with an injection volume of 10 ml/kg. The group treated with 30% PEG400 or saline served as a control group. Thirty minutes later, the mice were intraperitoneally treated with 0.8% (v/v) acetic acid. Each mouse was then placed in a cage for individual observation. The writhing numbers for 10 minutes were counted. The writhe is operationally defined as a contraction of the abdomen followed by stretching of the hind limbs. The potent ability of the compounds was determined as percent value of reduction in the number of writhing comparing to the control group.

T1 sequence (P31645 whole entry): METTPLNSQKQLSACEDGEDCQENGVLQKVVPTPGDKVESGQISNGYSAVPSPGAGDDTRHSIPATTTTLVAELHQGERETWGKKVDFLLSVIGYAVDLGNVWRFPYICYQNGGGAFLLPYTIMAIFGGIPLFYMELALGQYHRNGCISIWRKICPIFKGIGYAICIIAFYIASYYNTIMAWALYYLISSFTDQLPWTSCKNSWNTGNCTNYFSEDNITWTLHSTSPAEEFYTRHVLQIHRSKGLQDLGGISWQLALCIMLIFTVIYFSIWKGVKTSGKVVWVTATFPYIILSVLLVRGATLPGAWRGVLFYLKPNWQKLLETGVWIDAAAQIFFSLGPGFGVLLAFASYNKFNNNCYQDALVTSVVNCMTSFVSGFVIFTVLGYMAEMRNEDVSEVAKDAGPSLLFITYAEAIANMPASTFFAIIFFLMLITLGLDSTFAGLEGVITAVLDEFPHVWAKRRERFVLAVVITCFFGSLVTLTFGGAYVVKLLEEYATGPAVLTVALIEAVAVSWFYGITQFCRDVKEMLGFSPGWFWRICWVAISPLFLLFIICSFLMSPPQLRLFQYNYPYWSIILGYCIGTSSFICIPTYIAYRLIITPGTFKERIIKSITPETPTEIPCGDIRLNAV

SMILES: CNCCC(c1ccc(Cl)c(Cl)c1)n1ncnn1 (stereo not drawn) [Example 2, [3-(3,4-Dichloro-phenyl)-3-tetrazol-2-yl-propyl]-methyl-amine]
- Inhibition % at 100 nM 5-HT reuptake [1]: 35%
- Inhibition % at 100 nM NE reuptake [2]: 56%
- Inhibition % at 100 nM DA reuptake [3]: 48%
- inhibition in vivo at 30 mg/kg (mice [4]): 82.4%
- Reduction % at 30ip (mice [5]): 100%
- inhibition in vivo at 30 mg/kg (mice [6]): 50.3%

Source: patent US8101642B2, “3-substituted propanamine compounds” (SK Biopharmaceuticals Co., Ltd., priority 2008, dated 2012)
